This note sets out measurements from patent US20260231940A1, “METHOD FOR ATTRACTING COCKROACHES, COCKROACH ATTRACTANT, AND METHOD FOR CONTROLLING COCKROACHES” (SUMITOMO CHEMICAL COMPANY, LIMITED, priority 2023, published 2026).

Assay type in all cases: in vivo
For test [1], the system named is Blattella germanica. The test can be described thus: Test Example 4: choice test, methoprene-applied filter paper uneven sheet. To be noted: 1 g methoprene per 1 m^2, four hours after release, total of eight repetitions. The text has this:
(§1) FIG. 3 is a planar view schematically illustrating the test space used in Test Examples 1 to 5. […] Depending on the test system, a container 2 containing solid feed for MF mouse rats as bait and a container 3 containing water were placed between these two uneven sheets 1.
(§2) A sheet formed from a filter paper (ADVANTEC qualitative filter paper No. 2, manufactured by Toyo Roshi Kaisha, Ltd.) wherein the sheet was a triangular wave shape in its cross-sectional shape as shown in FIG. 2(b) was used. Specifically, an uneven sheet (a corrugated sheet) the depth of the concave portion and the height of the convex portion of which were each 17 mm, and where the concave portions and the convex portions were formed in a corrugated shape so that the angle at the vertices of the concave portions might be 60° was prepared.
(§3) As the uneven sheets 1 placed in the test space 20, all those being 10 cm×16 cm in size were used, and they were placed so that the ridge lines of the corrugations of the uneven sheets 1 were parallel to the lengthwise direction of the test space 20. […]
(§4) In the test space 20 prepared as described above, Blattella germanica (30 individuals in total) were released, and four hours later, the number of individuals settled in each uneven sheet 1 and the number of individuals present in the test space 20 other than the uneven sheets 1 were counted. […]

The subject of test [2] is Blattella germanica. Nature of the test: Test Example 3: choice test, bistrifluron-applied filter paper uneven sheet. To be noted: 1 g bistrifluron per 1 m^2, four hours after release, total of four repetitions.
From the text: as §1, §2, §3, §4

In test [3] the test system is Periplaneta americana nymphs. Nature of the test: Test Example 1: choice test, chemical-applied versus blank uneven sheet. On the procedure:
(§5) Specifically, an uneven sheet (a corrugated sheet) the depth of the concave portion and the height of the convex portion of which were each 10 mm, and where the concave portions and the convex portions were formed in a corrugated shape so that the angle at the vertices of the concave portion might be 53° was prepared. The uneven sheet was used in Test Example 1 and Test Example 2.
as §1
(§6) As the uneven sheets 1 placed in the test space 20, all those being 10 cm×10 cm in size were used, and they were placed so that the ridge lines of the corrugations of the uneven sheets 1 were parallel to the lengthwise direction of the test space 20.
(§7) As test insects, Periplaneta americana nymphs, Cimex lectularius, Dermanyssus gallinae, Sitophilus zeamais, and Plodia interpunctella larvae were used. Cimex lectularius and Dermanyssus gallinae were released into each test space 20 where feed and water had not been placed and only corrugated sheets 1 had been placed. Periplaneta americana nymphs were released into test space 20 where containers 2 and 3 containing feed and water respectively placed between the facing uneven sheets 1 as shown in FIG. 3. Sitophilus zeamais and Plodia interpunctella larvae were released into each test space 20 where feed and water had not been placed and brown rice had been placed on uneven sheets 1 as a hiding place for the test insects.
(§8) Four days after releasing the insects, the number of individuals settled in each uneven sheet 1 and the number of individuals present in the test space 20 other than the uneven sheets 1 were counted. The above test was conducted in two repetitions.

For another test, the system named is Sitophilus zeamais. The description is as above. To be noted: 1 g pyriproxyfen per 1 m^2, four days after release, total of two repetitions. On the procedure:
as §5, §1, §6, §7, §8

The subject of the next test is Cimex lectularius. Described as above. To be noted: 1 g pyriproxyfen per 1 m^2, four days after release, total of two repetitions. On the procedure:
as §5, §1, §6, §7, §8

Test [4] relates to Plodia interpunctella larvae. Described as above. To be noted: 1 g pyriproxyfen per 1 m^2, four days after release, total of two repetitions. Here is the method: as §5, §1, §6, §7, §8
The test system of another test is Dermanyssus gallinae. The description is as above. To be noted: 1 g pyriproxyfen per 1 m^2, four days after release, total of two repetitions. On the procedure: as §5, §1, §6, §7, §8
Test [5] deals with Blattella germanica. Nature of the test: Test Example 2: choice test, pyriproxyfen amount series on uneven sheet. To be noted: four hours after release, total of four repetitions; for Number of individuals Uneven sheet (chemical applied): 120 released. Here is the method:
as §5, §1
As the uneven sheets 1 placed in the test space 20, all those being 10 cm×16 cm in size were used, and they were placed so that the ridge lines of the corrugations of the uneven sheets 1 were parallel to the lengthwise direction of the test space 20. Additionally, containers 2 and 3 containing feed and water respectively were placed between the facing uneven sheets 1.
In the test space 20 prepared as described above, Blattella germanica (30 individuals in total) were released, and four hours later, the number of individuals settled in each uneven sheet 1 and the number of individuals present in the test space 20 other than the uneven sheets 1 were counted. The above test was conducted in four repetitions.

Test [6] relates to Blattella germanica. Nature of the test: Test Example 5: choice test, hydroprene-applied filter paper uneven sheet. To be noted: 500 mg hydroprene per 1 m^2, 24 hours after release, total of eight repetitions.
From the text: as §1, §2, §3
In the test space 20 prepared as described above, Blattella germanica (30 individuals in total) were released, and 24 hours later, the number of individuals settled in each uneven sheet 1 and the number of individuals present in the test space 20 other than the uneven sheets 1 were counted. […]

Setting [7] is: 60 released, brown rice on sheets.

With `COC(C)(C)CCC[C@H](C)C/C=C/C(C)=C/C(=O)OC(C)C` (racemic) [methoprene], the “Number of individuals Uneven sheet (chemical applied)” value (from here on “Number of individuals Uneven sheet”) in the test with Blattella germanica [1] (240 released) stood at 152. Further, the “Hiding rate (Chemical applied / Blank)” value in the test on Blattella germanica [1] was found to be 2.92.

`O=C(NC(=O)c1c(F)cccc1F)Nc1cc(C(F)(F)F)cc(C(F)(F)F)c1Cl` [bistrifluron]: in the test with Blattella germanica [2] (120 released), the “Number of individuals Uneven sheet” value is listed as 71. Also, the “Hiding rate (Chemical applied / Blank)” value in the test on Blattella germanica [2] amounted to 2.29.

Turning to `CC(COc1ccc(Oc2ccccc2)cc1)Oc1ccccn1` (centres unmarked) [pyriproxyfen], the “Number of individuals Uneven sheet” value in test [3] (Periplaneta americana nymphs, 1 g pyriproxyfen per 1 m^2, four days after release, 60 released, total of two repetitions, feed and water placed) came out at 39; in the test with Sitophilus zeamais (setting [7]), 21; in the test on Cimex lectularius (30 released, no feed or water), 12; in test [4] (setting [7]), 23; with Dermanyssus gallinae (59 released, no feed or water), 17; in the test on Blattella germanica [5] (10 mg/m^2 pyriproxyfen), 78. In addition, the “Number of individuals Uneven sheet” value in the test on Blattella germanica [5] (100 mg/m^2 pyriproxyfen) was determined as 70; in the test with Blattella germanica [5] (500 mg/m^2 pyriproxyfen) it was 98; with Blattella germanica [5] (1000 mg/m^2 pyriproxyfen) it was 91; in the test with Blattella germanica [5] (2000 mg/m^2 pyriproxyfen), 67; in the test on Blattella germanica [5] (5000 mg/m^2 pyriproxyfen) it was 71. For the same compound, the “Hiding rate (Chemical applied / Blank)” value in test [3] (Periplaneta americana nymphs, 1 g pyriproxyfen per 1 m^2, four days after release, total of two repetitions) is reported as 1.86; with Sitophilus zeamais it was 0.64; in the test on Cimex lectularius it was 0.75; in [4], 0.62; in the test on Dermanyssus gallinae, 0.94; with Blattella germanica [5] (10 mg/m^2 pyriproxyfen), 1.95. For the same compound, the “Hiding rate (Chemical applied / Blank)” value in the test with Blattella germanica [5] (100 mg/m^2 pyriproxyfen) is on record as 1.52; in the test with Blattella germanica [5] (500 mg/m^2 pyriproxyfen), 5.44; in the test with Blattella germanica [5] (1000 mg/m^2 pyriproxyfen), 3.25; with Blattella germanica [5] (2000 mg/m^2 pyriproxyfen) it was 1.40; in the test with Blattella germanica [5] (5000 mg/m^2 pyriproxyfen) it was 1.54. For the same compound, the attracting effect entry in [3] (conclusion from Table 1: Periplaneta americana nymphs versus the four other test species) is listed as “specific to cockroaches”.

Consider `CCOC(=O)/C=C(C)/C=C/CC(C)CCCC(C)C` (centres unmarked) [hydroprene], for which the “Number of individuals Uneven sheet” value in the test with Blattella germanica [6] (240 released) is given as 160. In addition, the “Hiding rate (Chemical applied / Blank)” value in the test with Blattella germanica [6] is 2.13.
